Test systems include K562; ACHN; BT-549; OVCAR-8; SF-539; OVCAR-3; MDA-MB-435; RPMI-8226; HCT-116; UACC-257; 786-0; HOP-62; CAKI-1; EKVX; SNB-19; OVCAR-5; OVCAR-4; HL-60; NCI-H226; HOP-92.
Test in all cases: growth of human tumour cells (NCI), 48 h

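All cell lines were grown in 96-well plates and treated with compound for 48 hours. GI50 is the concentration that inhibits growth by half.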 Calls of active or inactive are those of the source. No stated cut-off is given here; in the data, active = GI50 up to about 1.1 µM and inactive = higher.

On to `COC1C(OC(N)=O)C(O)C(Oc2ccc3c(O)c(NC(=O)c4ccc(O)c(CC=C(C)C)c4)c(=O)oc3c2C)OC1(C)C` (stereo unspecified), for which the GI50 in the assay on K562, with ACHN, in the assay on BT-549, with OVCAR-8, with SF-539 and with OVCAR-3 was > 100 µM (inactive) in each case. Further, the GI50 is 71.8 µM (inactive) in the assay on MDA-MB-435; 28.4 µM (inactive) in the assay with RPMI-8226; > 100 µM (inactive) with HCT-116; > 100 µM (inactive) in the assay with UACC-257; > 100 µM (inactive) in the assay with 786-0; > 100 µM (inactive) in the assay on HOP-62. The GI50 in the assay on CAKI-1, with EKVX, in the assay on SNB-19 and in the assay on OVCAR-5 was > 100 µM (inactive) each time.

As for `O=C1OC(C(O)CO)C(O)=C1O` (stereo unspecified), the GI50 in the assay with K562 is 65.8 µM (inactive); in the assay with ACHN, > 100 µM (inactive); in the assay with OVCAR-8, > 100 µM (inactive); in the assay with SF-539 it was > 100 µM (inactive); in the assay on OVCAR-3, > 100 µM (inactive); in the assay on OVCAR-4, > 100 µM (inactive). Further, the GI50 is > 100 µM (inactive) in the assay with MDA-MB-435; 49.2 µM (inactive) with RPMI-8226; > 100 µM (inactive) in the assay with HCT-116; > 100 µM (inactive) with UACC-257; > 100 µM (inactive) in the assay on HL-60; > 100 µM (inactive) in the assay with 786-0. Further, the GI50 in the assay on HOP-62, in the assay with CAKI-1, with NCI-H226, in the assay with EKVX, in the assay with HOP-92 and with SNB-19 was > 100 µM (inactive) in each case. For the same compound, in the assay on OVCAR-5, the GI50 was > 100 µM (inactive).

In the case of `COC(=O)Cc1cc2c(cc1C(=O)c1ccc(N)cc1)OCO2`, the GI50 was 0.553 µM (active) in the assay on K562; 3.56 µM (inactive) in the assay with OVCAR-8; 2.9 µM (inactive) in the assay on SF-539; 0.755 µM (active) in the assay with OVCAR-3; 11.2 µM (inactive) in the assay with OVCAR-4; 0.169 µM (active) with MDA-MB-435. For the same compound, the GI50 in the assay on RPMI-8226 was 1.5 µM (inactive); in the assay with HCT-116, 1.77 µM (inactive); in the assay on HL-60 it was 2.36 µM (inactive); in the assay on 786-0, 5.58 µM (inactive); in the assay with HOP-62 it was 3.84 µM (inactive); with CAKI-1, 3.48 µM (inactive). Moreover, the GI50 in the assay with NCI-H226 was 22.2 µM (inactive); in the assay on EKVX, 4.03 µM (inactive); in the assay with HOP-92 it was 2.37 µM (inactive); with SNB-19, 8.83 µM (inactive); in the assay with OVCAR-5 it was 6.46 µM (inactive).

On to `COc1ccc(N2C(=O)C3c4[nH]c5cccc(C)c5c4C4CCC(C(C)(C)C)CC4C3C2=O)cc1` (stereo unspecified), for which the GI50 is > 10 µM (inactive) in the assay on K562; > 10 µM (inactive) in the assay on ACHN; > 10 µM (inactive) with OVCAR-8; > 10 µM (inactive) in the assay with SF-539; > 10 µM (inactive) in the assay on OVCAR-3; 0.796 µM (active) in the assay with OVCAR-4. Also, the GI50 was > 10 µM (inactive) in the assay with MDA-MB-435; > 10 µM (inactive) in the assay on RPMI-8226; 5.62 µM (inactive) in the assay with HCT-116; > 10 µM (inactive) in the assay on HL-60; > 10 µM (inactive) in the assay on HOP-62; > 10 µM (inactive) in the assay with CAKI-1. Besides, the GI50 with NCI-H226, with EKVX, in the assay with SNB-19 and in the assay with OVCAR-5 was > 10 µM (inactive) each time.

On to `CC(Nc1cc(Cl)cc(Cl)c1)c1ccncc1` (stereo unspecified), for which the GI50 in the assay with K562 was 13.6 µM (inactive); in the assay with ACHN it was 22.4 µM (inactive); with BT-549 it was 22.4 µM (inactive); in the assay on OVCAR-8 it was 18.5 µM (inactive); with SF-539, 21.8 µM (inactive); with OVCAR-3, 16.6 µM (inactive). Further, the GI50 is 38.9 µM (inactive) with OVCAR-4; 22.2 µM (inactive) with MDA-MB-435; 18.2 µM (inactive) in the assay on RPMI-8226; 14.8 µM (inactive) with HCT-116; 22.8 µM (inactive) in the assay on UACC-257; 26.2 µM (inactive) in the assay with 786-0. The GI50 in the assay with HOP-62 is 15.8 µM (inactive); in the assay on CAKI-1 it was 17.2 µM (inactive); in the assay with NCI-H226 it was 11.5 µM (inactive); in the assay with EKVX it was 22.4 µM (inactive); in the assay with SNB-19 it was 33.8 µM (inactive); in the assay with OVCAR-5, 16.2 µM (inactive).

Turning to `CCn1nc(C)c2c1C(=O)NC(C)C(=O)N2` (stereo unspecified), the GI50 in the assay on ACHN, in the assay on BT-549, in the assay with OVCAR-8, with SF-539, in the assay with OVCAR-3 and in the assay with OVCAR-4 was > 100 µM (inactive) throughout. For the same compound, the GI50 with MDA-MB-435, in the assay with HCT-116, in the assay with UACC-257, in the assay on CAKI-1, in the assay with EKVX and with HOP-92 was > 100 µM (inactive) throughout. The GI50 with SNB-19 and with OVCAR-5 was > 100 µM (inactive) each time.

Turning to `O/N=C1\CC2(N3CCOCC3)CCC1(Cc1ccccc1)CC2`, the GI50 in the assay with K562 was > 100 µM (inactive); in the assay on ACHN, 22.3 µM (inactive); in the assay on OVCAR-8 it was 23.4 µM (inactive); in the assay on SF-539, 23.2 µM (inactive); in the assay with OVCAR-3 it was > 100 µM (inactive); with OVCAR-4, 32.5 µM (inactive). Also, the GI50 is > 100 µM (inactive) in the assay with MDA-MB-435; 35.6 µM (inactive) with HCT-116; > 100 µM (inactive) in the assay with UACC-257; > 100 µM (inactive) in the assay on HL-60; 19 µM (inactive) in the assay on 786-0; 23 µM (inactive) with HOP-62. In addition, the GI50 with CAKI-1 is 64.3 µM (inactive); in the assay with NCI-H226, 35 µM (inactive); in the assay on EKVX, > 100 µM (inactive); in the assay on HOP-92, 28.6 µM (inactive); in the assay with SNB-19, 24.1 µM (inactive); in the assay with OVCAR-5, > 100 µM (inactive).

Consider `C[N+]1(C)[C@@H]2CC[C@H]1C[C@@H](OC(=O)C(CO)c1ccccc1)C2` (stereo partly specified) [ATROPINE METHYLBROMIDE], for which the GI50 in the assay on K562, in the assay on ACHN, with BT-549, in the assay with OVCAR-8, in the assay on SF-539 and in the assay with OVCAR-3 was > 100 µM (inactive) throughout. The GI50 in the assay on OVCAR-4, in the assay on MDA-MB-435, with RPMI-8226, in the assay on HCT-116, in the assay with UACC-257 and in the assay on 786-0 was > 100 µM (inactive) in each case. Also, the GI50 with HOP-62, with CAKI-1, with NCI-H226, with EKVX, in the assay with SNB-19 and with OVCAR-5 was > 100 µM (inactive) each time.

As for `CN(C)CCNC(=O)c1cccc2c(NC(CS)C(=O)O)c3ccccc3[n+](C)c12` (stereo unspecified), the GI50 in the assay with K562 is 87.9 µM (inactive); in the assay on ACHN, 35.5 µM (inactive); in the assay on BT-549, 35.6 µM (inactive); with OVCAR-8, 56.8 µM (inactive); with SF-539 it was 80.4 µM (inactive); with OVCAR-3, 81.3 µM (inactive). In addition, the GI50 in the assay with OVCAR-4 was > 100 µM (inactive); in the assay with MDA-MB-435, 68.5 µM (inactive); with RPMI-8226 it was > 100 µM (inactive); with HCT-116 it was 41.1 µM (inactive); in the assay with UACC-257, 60.3 µM (inactive); in the assay with 786-0, 69.2 µM (inactive). The GI50 with HOP-62 is 60.8 µM (inactive); in the assay with EKVX, 56.9 µM (inactive); in the assay with SNB-19, 84.7 µM (inactive); in the assay on OVCAR-5, > 100 µM (inactive).

Regarding `CCCCNC(=S)Nc1nc(C(=O)NNS(=O)(=O)c2ccccc2)cs1`, the GI50 with K562 is 49.1 µM (inactive); in the assay on ACHN it was 28.7 µM (inactive); in the assay on BT-549 it was 32.7 µM (inactive); in the assay with OVCAR-8, 33.7 µM (inactive); with SF-539, 33.6 µM (inactive); with OVCAR-3, 24.2 µM (inactive). Besides, the GI50 is 21.4 µM (inactive) in the assay on MDA-MB-435; 31.2 µM (inactive) with RPMI-8226; 26.2 µM (inactive) with HCT-116; 22.9 µM (inactive) with UACC-257; > 100 µM (inactive) with 786-0; 36.4 µM (inactive) in the assay with HOP-62. The GI50 is 27.7 µM (inactive) in the assay on CAKI-1; > 10 µM (inactive) in the assay on NCI-H226; 31.6 µM (inactive) in the assay on EKVX; 64.7 µM (inactive) with HOP-92; 42 µM (inactive) with OVCAR-5.

As to `COc1cc(OC)cc(-n2c(N)c(C#N)c3ccc([N+](=O)[O-])cc3c2=O)c1`, the GI50 with K562 is 22.6 µM (inactive); with ACHN it was 28.3 µM (inactive); in the assay on BT-549 it was 31.2 µM (inactive); in the assay with OVCAR-8, 18.7 µM (inactive); with OVCAR-4 it was 16.6 µM (inactive); in the assay on MDA-MB-435, 63.2 µM (inactive). Besides, the GI50 was 85.7 µM (inactive) in the assay with RPMI-8226; 93.5 µM (inactive) with HCT-116; 35 µM (inactive) with UACC-257; 19 µM (inactive) in the assay on 786-0; 30.8 µM (inactive) with CAKI-1; 23.9 µM (inactive) in the assay with NCI-H226. Besides, the values for the GI50 in the assay on HOP-92 and with SNB-19 were 19.1 µM (inactive) and 17.5 µM (inactive), respectively.

Consider `O=C(N/S(=N/S(=O)(=O)c1ccc(Br)cc1)C(Cl)(Cl)Cl)c1ccccc1` (stereo unspecified), for which the GI50 with K562, in the assay on ACHN, in the assay with BT-549, with OVCAR-8, in the assay with SF-539 and in the assay on OVCAR-3 was > 100 µM (inactive) each time. In addition, the GI50 in the assay with OVCAR-4, in the assay on MDA-MB-435, in the assay with RPMI-8226, in the assay on HCT-116, in the assay with UACC-257 and in the assay on 786-0 was > 100 µM (inactive) throughout. Moreover, the GI50 in the assay with HOP-62 is > 100 µM (inactive); in the assay on NCI-H226, > 100 µM (inactive); in the assay on EKVX it was > 100 µM (inactive); with HOP-92, 26.2 µM (inactive); with SNB-19 it was > 100 µM (inactive); in the assay on OVCAR-5 it was > 100 µM (inactive).

Values taken from ChEMBL document CHEMBL1201862, “PubChem BioAssay data set” (2004).
